The subject of one series is NMRI mice. Put plainly: 2 weeks toxicology study in NMRI mice. It counts as in vivo. How it is done:
Oral administration of the RXR agonist compound 1 is tested by daily oral gavage in a 2 weeks toxicology study in NMRI mice. […] This signifies a favourable effect on the lipid profile, which is important in therapy of diabetes and lipid disorders.

The next series relates to rats. Put plainly: 4-weeks toxicology study in rats, oral gavage. It counts as in vivo. From the text: […]. […] This symptom of hair loss is observed, dose-dependently, with all doses. Clinical pathology is limited to minor disturbances.
Series [1] is described as follows: Pharmacokinetics, single dose administration. Format: in vivo. The conditions noted are these: plasma; for concentration at 1 h: po, microsuspension in oil, read-out: Plasma level one hour after oral administration. How it is done:
Single dose administration: Compound 15 is administered orally as a microsuspension in oil. When measured one hour after oral administration, plasma levels are 480 ng/ml with 20 mg/kg and 2755 ng/ml with 100 mg/kg. There is a dose proportional increase in plasma levels of compound 15 within this dose range.

Series [2] can be described thus: Pharmacokinetics, daily oral gavage for 14 days in mice. Particulars: mouse, in vivo; for AUC / Cmax: oral. How it is done:
Daily administration of compound 15 by oral gavage for 14 days in mice: Compound 15 is administered daily by oral gavage as a microsuspension in oil in doses of 30 to 400 mg/kg/day for 14 days in mice.

Series [3] can be described thus: Pharmacokinetics, daily oral gavage for 4 weeks in rats. Format: in vivo. The protocol: Daily administration of compound 15 by oral gavage for 4 weeks in rats: Compound 15 is administered daily by oral gavage as an oily suspension in doses of 50, 250, 500 and 750 mg/kg/day for 4 weeks in rats. Plasma samples are taken 2 hours post dosing on days 1, 22 and 26 and analysed by a gradient HPLC method with UV detection. […] With the 250 mg/kg/day dosage, plasma levels change from 4945 ng/ml on day 1 to 4190 ng/ml on day 22 and to 4530 ng/ml on day 26. Exposure of the rats to compound 15 results in a dose-proportional way in the doses between 50 and 250 mg/kg/day.

The subject of series [4] is myeloperoxidase (MPO) activity. Put plainly: Semi chronic inflammation of mouse ears, MPO activity. Format: in vivo, C57BL/6 mice. The conditions noted are these: 11 d. The protocol: (§1) […] mice of the C57BL/6 strain are used. Inflammation is induced on mouse ears with either AtRA, 9-cis RA or TPA by topical application. Inflammation is measured objectively by determination of the activity of myeloperoxidase (MPO) being directly correlated to the infiltration of polymorphonuclear white blood cells and by the determination of mRNA expression of c-jun, a protein implicated in the AP-1 transduction pathway according to known methods, see e.g. P. L. Stanley et al., Skin Pharmacol. 4, 262-271 (1991) (MPO assay), N. Basset-Sequin et al., J. Invest. Dermatol. 94, 418-422 (1990), F. J. Rauscher et al., Cell 52, 471-480 […], P. Sassone-Corn et al., Nature 326, 507-510 (1987), and M. Pfahl, Endocr. Rev. 14, 651-658, 1993, which are incorporated by reference regarding the experimental method.
In the “acute inflammation” test, mice are treated topically (epicutaneously), orally or intraperitoneally, daily for 4 days. In the “semi chronic inflammation” test, mice are treated topically according to the schedules given below. For each experiment, a group of at least 4 mice of both sexes are used in the defined condition, regarding placebo, vehicle control, compound, topical formulation, oral formulation, dosage and concentration. The topical vehicle consists of ethanol/PEG 400/water (3:1:1).
(§2) The anti-inflammatory effect of topical RXR antagonists is tested by determination of myeloperoxidase activity in % of vehicle controls. The effect of the RXR antagonist compound 15 is also compared with the well known anti-inflammatory effect of the two corticosteroids, clobetasol dipropionate and betamethasone propionate. For induction of inflammation, AtRA and TPA are applied topically to the skin and the administration of the test compounds, the RXR antagonist compound 15 and the two corticosteroids are given in the following order, according to the schedule, described in: Skin Pharmacol 1991; 4 (4): 262-271, Stanley P L. et.al.: RA or TPA is administered on days 0, 2, 4, 7 and 9, compound 15 or corticosteroids are administered twice daily on day 7, day 8 and day 9 and once on day 10 in the morning. The mice are sacrificed on day 10 in the afternoon.

The test system of another series is c-Jun mRNA expression. The series is described as follows: Semi chronic inflammation of mouse ears, c-Jun mRNA (northern blot). It counts as in vivo, C57BL/6 mice. Particulars: TPA 0.005% + test compound 0.05%. The protocol: as §1, §2
In the same experiment, the expression of c-Jun mRNA is determined by northern blot and expressed in percent of the vehicle controls.

For a further series, the system named is normal mice. Put plainly: 2-weeks toxicity study in normal mice, intraperitoneal. The conditions noted are these: daily i.p.

Data on 2 compounds can be found in patent US20080255206A1, “Rxr Agonists and Antagonists, Alone or in Combination with Ppar Ligands, in the Treatment of Metabolic and Cardiovascular Diseases” (priority 2005, published 2008).

Read-outs that look alike come from different tables or passages of the source.

The term bioavailability denotes dose-corrected exposure relative to a reference, in per cent. Lower therefore signals little systemic uptake. Usually AUC stands for the area under the concentration-time curve, a measure of exposure. High values mean high exposure, low ones low exposure. Usually Cmax stands for the peak of the concentration-time curve. As a reminder, the Tmax is the time from dosing to the highest level.

As to `CC1=C(/C=C/C2=C(/C=C/C(C)=C/C(=O)O)CCCCC2)C(C)(C)CCC1` [Compound 1, (2E,4E)-3-methyl-5-[2-[(E)-2-(2,6,6-trimethyl-1-cyclohexen-1-yl)ethenyl]-1-cyclohepten-1-yl]-2,4-pentadienoic acid], in the series on NMRI mice (all treated groups), the “Lipid profile (triglycerides, HDL-, LDL-cholesterol)” value was “tendency to a decrease in triglycerides, an increase in HDL-cholesterol and a decrease in LDL-cholesterol”; the “Signs or symptoms of the hypervitaminosis A syndrome” value was “no signs or symptoms of the hypervitaminosis A syndrome”. The “Tolerability, oral” value in the series on NMRI mice (daily oral gavage, 2 weeks, up to 400 mg/kg/day) was “very well tolerated”. Besides, the “Tolerability, intraperitoneal” value with NMRI mice (intraperitoneally, 200 mg/kg/day) is “well tolerated”. Further, the “Body weight, intraperitoneal” value in the series on NMRI mice (intraperitoneally, 400 mg/kg/day) is recorded as “retarded body weight increase”.
As to `CCCCOc1c(\C(C)=C/C=C/C(C)=C/C(=O)O)cc(C(C)(C)C)cc1C(C)(C)C` [Compound 15, (2E,4E,6Z)-7-[2-butoxy-3,5-bis(1,1-dimethylethyl)phenyl]-3-methyl-2,4,6-octatrienoic acid], the “Haematology and clinical chemistry” value in the series with rats (4 weeks oral gavage) is given as “No abnormalities in haematology, no abnormalities in clinical chemistry”. The Histopathology entry in the series on rats (4 weeks oral gavage) is “only some changes in the 500/750 mg/kg dose group”. Moreover, in the series with rats (4 weeks oral gavage), the “Transaminases, triglycerides and cholesterol” value is “No increase in transaminases, triglycerides, and cholesterol”. Besides, the “Tolerability, oral” value with rats (daily doses of 50, 250, 500, eventually 750 mg/kg, 4 weeks) was “well tolerated with the exception of patchy alopecia”. The results for the concentration at 1 h in series [1] (single dose 20 mg/kg) and in series [1] (single dose 100 mg/kg) were 0.48 µg/mL and 2.75 µg/mL, respectively. The bioavailability in series [1] (at the mentioned low doses, intravenous versus oral PK data) came out at 40%. The area under the curve (AUC) in series [2] (30 mg/kg) came out at 13.2 µg·h/mL; in series [2] (100 mg/kg), 25.7 µg·h/mL. Further, the results for the Cmax in series [2] (30 mg/kg) and in series [2] (100 mg/kg) were 4.44 µg/mL and 8.92 µg/mL, respectively. Also, in series [2] (oral gavage 30 to 400 mg/kg/day, 14 days), the time of peak concentration (Tmax) was 0.5 to 2 h. The “Plasma level 2 hours post dosing” value stood at 2.205 µg/mL in series [3] (50 mg/kg/day, day 1); 2.235 µg/mL in series [3] (50 mg/kg/day, day 22); 2.505 µg/mL in series [3] (50 mg/kg/day, day 26); 4.945 µg/mL in series [3] (250 mg/kg/day, day 1); 4.19 µg/mL in series [3] (250 mg/kg/day, day 22); 4.53 µg/mL in series [3] (250 mg/kg/day, day 26). The “MPO activity (% vehicle treated mice)” value was found to be 184 ± 72 % vehicle treated mice in series [4] (At RA 0.05% + test compound 0.05% topical) and 345 ± 81 % vehicle treated mice in series [4] (TPA 0.005% + test compound 0.05% topical). The “c-Jun mRNA expression (% of vehicle treated mice)” value in the series with c-Jun mRNA expression is 88 % of vehicle treated mice. In addition, the “Signs or symptoms of hypervitaminosis A” value in the series on normal mice is given as “no signs or symptoms of hypervitaminosis A on skin, mucous membranes or bones with the exception of hair loss”. The “Tolerability, intraperitoneal” value in the series with normal mice (doses up to 400 mg/kg) is on record as “well tolerated”.
